Laboratory results from BindingDB's records for doi:10.1021/jm7012858 (Wyeth Research, 2008).

Tests used:
Test in all cases: PI3K Inhibition Assay
[1] = molecular target: Phosphatidylinositol 3-kinase regulatory subunit alpha/4,5-bisphosphate 3-kinase catalytic subunit alpha isoform (Homo sapiens, UniProt P42336)
Procedure: (§1) Inhibition of PI3K enzyme activity is measured in a microtiter plate-based fluorescence polarization (FP) assay.

[2] = molecular target: Phosphatidylinositol 3-kinase regulatory subunit beta/4,5-bisphosphate 3-kinase catalytic subunit delta isoform (Homo sapiens, UniProt O00329+O00459); conditions: pH 7.5; 22 °C
Procedure: as §1

[3] = molecular target: Phosphatidylinositol 3-kinase regulatory subunit beta/4,5-bisphosphate 3-kinase catalytic subunit beta isoform (Homo sapiens, UniProt P42338); conditions: pH 7.5; 22 °C
Procedure: as §1

[4] = molecular target: Phosphatidylinositol 4,5-bisphosphate 3-kinase catalytic subunit gamma isoform/Phosphoinositide 3-kinase regulatory subunit 5 (Homo sapiens, UniProt P48736); conditions: pH 7.5; 22 °C
Procedure: as §1

Chain of Phosphatidylinositol 3-kinase regulatory subunit alpha/4,5-bisphosphate 3-kinase catalytic subunit alpha isoform (P27986 whole entry, canonical isoform): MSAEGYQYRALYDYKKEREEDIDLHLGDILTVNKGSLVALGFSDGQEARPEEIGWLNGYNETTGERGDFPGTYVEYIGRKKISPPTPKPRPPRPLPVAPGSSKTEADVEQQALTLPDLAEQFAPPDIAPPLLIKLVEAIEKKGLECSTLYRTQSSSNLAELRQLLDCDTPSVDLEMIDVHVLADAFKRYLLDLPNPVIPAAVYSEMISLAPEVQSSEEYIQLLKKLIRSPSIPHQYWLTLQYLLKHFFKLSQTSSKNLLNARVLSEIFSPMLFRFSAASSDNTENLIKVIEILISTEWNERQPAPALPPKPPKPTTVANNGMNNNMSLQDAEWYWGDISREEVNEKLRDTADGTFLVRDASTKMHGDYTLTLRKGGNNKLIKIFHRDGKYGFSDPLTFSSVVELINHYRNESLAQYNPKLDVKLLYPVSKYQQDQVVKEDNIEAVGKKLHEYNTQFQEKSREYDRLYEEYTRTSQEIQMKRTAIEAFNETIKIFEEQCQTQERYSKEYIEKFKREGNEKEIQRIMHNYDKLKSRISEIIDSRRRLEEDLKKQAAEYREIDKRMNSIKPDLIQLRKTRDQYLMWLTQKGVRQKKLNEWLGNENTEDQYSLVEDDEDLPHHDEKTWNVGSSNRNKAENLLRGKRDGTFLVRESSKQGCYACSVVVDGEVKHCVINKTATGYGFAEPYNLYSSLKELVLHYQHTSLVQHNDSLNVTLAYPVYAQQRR
Chain of Phosphatidylinositol 3-kinase regulatory subunit alpha/4,5-bisphosphate 3-kinase catalytic subunit alpha isoform (P42336 whole entry, canonical isoform): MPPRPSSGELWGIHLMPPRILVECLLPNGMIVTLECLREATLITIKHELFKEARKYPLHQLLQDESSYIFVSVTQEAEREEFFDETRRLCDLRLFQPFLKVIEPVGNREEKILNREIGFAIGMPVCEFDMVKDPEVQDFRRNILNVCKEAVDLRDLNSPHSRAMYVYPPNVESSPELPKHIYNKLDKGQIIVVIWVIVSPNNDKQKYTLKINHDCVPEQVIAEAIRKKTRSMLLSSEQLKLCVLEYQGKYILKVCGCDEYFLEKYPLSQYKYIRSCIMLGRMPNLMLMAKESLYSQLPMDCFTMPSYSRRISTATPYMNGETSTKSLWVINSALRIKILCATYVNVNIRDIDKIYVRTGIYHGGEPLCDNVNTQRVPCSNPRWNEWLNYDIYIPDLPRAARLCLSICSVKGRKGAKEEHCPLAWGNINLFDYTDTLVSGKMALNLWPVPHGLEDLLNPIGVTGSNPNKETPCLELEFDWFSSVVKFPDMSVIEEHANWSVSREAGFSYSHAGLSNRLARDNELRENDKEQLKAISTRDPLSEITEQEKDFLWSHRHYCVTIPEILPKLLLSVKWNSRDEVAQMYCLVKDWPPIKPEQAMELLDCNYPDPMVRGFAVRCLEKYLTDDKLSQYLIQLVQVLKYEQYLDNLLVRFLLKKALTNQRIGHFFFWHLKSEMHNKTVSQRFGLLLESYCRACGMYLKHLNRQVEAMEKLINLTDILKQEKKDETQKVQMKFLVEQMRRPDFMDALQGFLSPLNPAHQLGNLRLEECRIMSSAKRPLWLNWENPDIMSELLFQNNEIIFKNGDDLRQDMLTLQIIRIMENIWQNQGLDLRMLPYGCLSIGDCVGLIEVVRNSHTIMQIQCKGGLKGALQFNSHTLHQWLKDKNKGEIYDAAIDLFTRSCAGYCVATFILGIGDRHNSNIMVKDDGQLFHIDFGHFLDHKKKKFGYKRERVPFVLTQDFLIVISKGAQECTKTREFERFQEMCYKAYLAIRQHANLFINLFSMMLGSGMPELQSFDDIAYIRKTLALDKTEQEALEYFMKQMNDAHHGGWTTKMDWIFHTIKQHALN
Chain of Phosphatidylinositol 4,5-bisphosphate 3-kinase catalytic subunit gamma isoform/Phosphoinositide 3-kinase regulatory subunit 5 (P48736 whole entry, canonical isoform): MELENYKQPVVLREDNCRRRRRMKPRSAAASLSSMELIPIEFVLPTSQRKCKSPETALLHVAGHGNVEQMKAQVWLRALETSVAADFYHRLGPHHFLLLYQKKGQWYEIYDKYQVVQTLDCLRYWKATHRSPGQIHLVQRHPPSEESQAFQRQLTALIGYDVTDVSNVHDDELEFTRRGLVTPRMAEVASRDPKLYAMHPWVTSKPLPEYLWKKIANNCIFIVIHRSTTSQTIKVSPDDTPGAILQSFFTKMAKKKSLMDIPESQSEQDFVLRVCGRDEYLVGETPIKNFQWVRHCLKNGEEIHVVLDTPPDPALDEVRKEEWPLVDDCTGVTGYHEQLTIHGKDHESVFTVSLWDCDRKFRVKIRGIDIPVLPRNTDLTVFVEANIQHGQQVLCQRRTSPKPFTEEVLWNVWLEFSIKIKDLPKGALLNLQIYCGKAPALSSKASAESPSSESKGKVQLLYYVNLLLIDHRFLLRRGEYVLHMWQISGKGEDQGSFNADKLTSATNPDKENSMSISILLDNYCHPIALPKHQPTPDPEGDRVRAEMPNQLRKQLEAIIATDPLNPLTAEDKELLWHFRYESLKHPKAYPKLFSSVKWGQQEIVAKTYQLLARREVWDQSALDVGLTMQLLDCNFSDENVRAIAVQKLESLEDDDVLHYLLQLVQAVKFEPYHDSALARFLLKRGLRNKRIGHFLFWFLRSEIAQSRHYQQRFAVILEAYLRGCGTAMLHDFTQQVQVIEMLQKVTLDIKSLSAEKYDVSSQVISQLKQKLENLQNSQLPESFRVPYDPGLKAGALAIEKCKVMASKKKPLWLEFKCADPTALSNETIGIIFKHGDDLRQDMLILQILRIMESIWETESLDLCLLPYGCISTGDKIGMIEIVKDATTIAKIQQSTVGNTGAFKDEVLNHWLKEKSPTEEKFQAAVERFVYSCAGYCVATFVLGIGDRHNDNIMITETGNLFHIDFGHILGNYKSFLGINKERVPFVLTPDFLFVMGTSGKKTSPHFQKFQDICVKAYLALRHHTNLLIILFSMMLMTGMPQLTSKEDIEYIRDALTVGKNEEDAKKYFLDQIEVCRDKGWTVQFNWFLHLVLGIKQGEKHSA
Chain of Phosphatidylinositol 4,5-bisphosphate 3-kinase catalytic subunit gamma isoform/Phosphoinositide 3-kinase regulatory subunit 5 (Q8WYR1 whole entry, further chain, canonical isoform): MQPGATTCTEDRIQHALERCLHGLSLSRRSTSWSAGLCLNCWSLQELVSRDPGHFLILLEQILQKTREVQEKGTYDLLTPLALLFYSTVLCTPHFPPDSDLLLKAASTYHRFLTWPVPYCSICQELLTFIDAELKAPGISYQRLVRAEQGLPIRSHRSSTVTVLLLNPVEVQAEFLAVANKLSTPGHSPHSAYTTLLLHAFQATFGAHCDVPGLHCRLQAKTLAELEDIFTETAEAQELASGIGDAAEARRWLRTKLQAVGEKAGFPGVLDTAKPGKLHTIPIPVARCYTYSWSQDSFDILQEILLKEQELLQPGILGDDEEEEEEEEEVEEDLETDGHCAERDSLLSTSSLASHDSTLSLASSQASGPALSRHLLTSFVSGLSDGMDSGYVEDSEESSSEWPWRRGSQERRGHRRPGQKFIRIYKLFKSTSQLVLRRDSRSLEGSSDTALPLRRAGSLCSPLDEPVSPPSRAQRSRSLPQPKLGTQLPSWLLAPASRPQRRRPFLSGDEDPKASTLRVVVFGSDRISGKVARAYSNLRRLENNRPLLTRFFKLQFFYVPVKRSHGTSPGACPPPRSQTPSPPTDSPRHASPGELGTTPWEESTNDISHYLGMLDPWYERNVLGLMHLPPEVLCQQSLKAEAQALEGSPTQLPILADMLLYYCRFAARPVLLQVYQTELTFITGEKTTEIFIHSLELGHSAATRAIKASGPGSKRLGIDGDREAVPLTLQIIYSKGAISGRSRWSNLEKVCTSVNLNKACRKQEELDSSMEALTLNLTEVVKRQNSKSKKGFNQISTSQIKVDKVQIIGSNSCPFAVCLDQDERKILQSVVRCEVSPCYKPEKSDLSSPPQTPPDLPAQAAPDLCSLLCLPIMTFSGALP

SMILES | IC50 ([1]; pH 7.5, 22 °C) | IC50 [1] | other results
COC[C@H]1OC(=O)C(=CN2CCC(N3CCCCC3)CC2)C2C(=O)C(=O)C3=C([C@H](OC(C)=O)C[C@@]4(C)C3CC[C@@H]4O)[C@]21C (stereo partly drawn) [(2R,3S,6E,14S,15S,17R)-8,14-dihydroxy-3-(methoxymethyl)-2,15-dimethyl-5,9-dioxo-6-{[4-(piperidin-1-yl)piperidin-1-yl]methylidene}-4-oxatetracyclo[8.7.0.0^{2,7}.0^{11,15}]heptadeca-1(10),7-dien-17-yl acetate] |  | 0.063 µM | 
COC[C@H]1OC(=O)c2coc3c2[C@@]1(C)C1=C(C3=O)C2CC[C@H](O)[C@@]2(C)C[C@H]1OC(C)=O (stereo partly drawn) [(1R,3R,5S,6S,18S)-6-hydroxy-18-(methoxymethyl)-1,5-dimethyl-11,16-dioxo-13,17-dioxapentacyclo[10.6.1.0^{2,10}.0^{5,9}.0^{15,19}]nonadeca-2(10),12(19),14-trien-3-yl acetate] | 0.0027 µM |  | 
CCN(CC)CCN(C)C=C1C(=O)O[C@H](COC)[C@]2(C)C3=C(C(=O)C(=O)C12)C1CC[C@H](O)[C@@]1(C)C[C@H]3OC(C)=O (stereo partly drawn) [(2R,3S,6E,14S,15S,17R)-6-({[2-(diethylamino)ethyl](methyl)amino}methylidene)-8,14-dihydroxy-3-(methoxymethyl)-2,15-dimethyl-5,9-dioxo-4-oxatetracyclo[8.7.0.0^{2,7}.0^{11,15}]heptadeca-1(10),7-dien-17-yl acetate] |  | 0.05 µM | 
COC[C@H]1OC(=O)C(=CN(C)CC(O)CO)C2C(=O)C(=O)C3=C([C@H](OC(C)=O)C[C@@]4(C)C3CC[C@@H]4O)[C@]21C (stereo partly drawn) [(2R,3S,6E,14S,15S,17R)-6-{[(2,3-dihydroxypropyl)(methyl)amino]methylidene}-8,14-dihydroxy-3-(methoxymethyl)-2,15-dimethyl-5,9-dioxo-4-oxatetracyclo[8.7.0.0^{2,7}.0^{11,15}]heptadeca-1(10),7-dien-17-yl acetate] |  | 0.199 µM | 

Further lines, with some results ahead:

IC50 ([1]; pH 7.5, 22 °C) | IC50 [1] | SMILES | other results
0.0064 µM |  | COC[C@H]1OC(=O)C(=CN(C)CCCN(C)C)C2C(=O)C(=O)C3=C([C@H](OC(C)=O)C[C@@]4(C)C3CC[C@@H]4O)[C@]21C (stereo partly drawn) [(2R,3S,6Z,14S,15S,17R)-6-({[3-(dimethylamino)propyl](methyl)amino}methylidene)-8,14-dihydroxy-3-(methoxymethyl)-2,15-dimethyl-5,9-dioxo-4-oxatetracyclo[8.7.0.0^{2,7}.0^{11,15}]heptadeca-1(10),7-dien-17-yl acetate] | IC50 [2]: 0.011 µM; IC50 [3]: 0.013 µM; IC50 [4]: 0.008 µM
 | 1.58 µM | COC[C@H]1OC(=O)C(=CN(C)CC(=O)OC(C)(C)C)C2C(=O)C(=O)C3=C([C@H](OC(C)=O)C[C@@]4(C)C3CC[C@@H]4O)[C@]21C (stereo partly drawn) [tert-butyl 2-({[(2R,3S,6E,14S,15S,17R)-17-(acetyloxy)-8,14-dihydroxy-3-(methoxymethyl)-2,15-dimethyl-5,9-dioxo-4-oxatetracyclo[8.7.0.0^{2,7}.0^{11,15}]heptadeca-1(10),7-dien-6-ylidene]methyl}(methyl)amino)acetate] | 
0.0096 µM |  | COC[C@H]1OC(=O)C(=CN(CCN(C)C)C(C)(C)C)C2C(=O)C(=O)C3=C([C@H](OC(C)=O)C[C@@]4(C)C3CC[C@@H]4O)[C@]21C (stereo partly drawn) [(2R,3S,6Z,14S,15S,17R)-6-({tert-butyl[2-(dimethylamino)ethyl]amino}methylidene)-8,14-dihydroxy-3-(methoxymethyl)-2,15-dimethyl-5,9-dioxo-4-oxatetracyclo[8.7.0.0^{2,7}.0^{11,15}]heptadeca-1(10),7-dien-17-yl acetate] | 
0.44 µM |  | COC[C@H]1OC(=O)C(=CN(C)C(C)(C)C)C2C(=O)C(=O)C3=C([C@H](OC(C)=O)C[C@@]4(C)C3CC[C@@H]4O)[C@]21C (stereo partly drawn) [(2R,3S,6Z,14S,15S,17R)-6-{[tert-butyl(methyl)amino]methylidene}-8,14-dihydroxy-3-(methoxymethyl)-2,15-dimethyl-5,9-dioxo-4-oxatetracyclo[8.7.0.0^{2,7}.0^{11,15}]heptadeca-1(10),7-dien-17-yl acetate] | 
